Measurements reported in patent US20250346593A1, “IMIDAZO(1,2-1)PYRIDINE DERIVATIVES AS RIPK2 INHIBITORS” (Interline Therapeutics, Inc., priority 2022, published 2025).
Where two headings read alike, the source gives them in different places.

How the values were obtained:
[1] = test system: NF-κB pathway (SEAP) in THP1-Dual cells; experiment: THP-1 Dual cell SEAP assay (L18-MDP stimulated); type: cell-based; conditions: Homo sapiens, THP1-Dual, read-out: NFkB THP1 IC50
[2] = molecular target: GST-RIPK2 fusion protein (human RIPK2 amino acids 1-310) (Homo sapiens (Human), UniProt O43353); experiment: RIPK2 binding competition assay (TR-FRET, Tracer 199)
GST-RIPK2 fusion protein (human RIPK2 amino acids 1-310), sequence (O43353 1-310): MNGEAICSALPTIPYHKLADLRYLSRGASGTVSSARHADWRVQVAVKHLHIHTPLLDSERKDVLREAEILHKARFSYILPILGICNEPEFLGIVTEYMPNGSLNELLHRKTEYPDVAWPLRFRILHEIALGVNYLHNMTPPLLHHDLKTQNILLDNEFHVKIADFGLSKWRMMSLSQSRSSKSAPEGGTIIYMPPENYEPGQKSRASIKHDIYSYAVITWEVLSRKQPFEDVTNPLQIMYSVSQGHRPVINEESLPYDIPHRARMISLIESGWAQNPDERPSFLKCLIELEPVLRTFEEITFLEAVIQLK

[3] = read-out: RIPK2 IC50, RIPK2 binding competition assay

SMILES	IC50 [1] [nM]	IC50 [2, 3] [nM]	IC50 [2] [nM]
CCCS(=O)(=O)Nc1cc(OC)cc(-c2cnc3cc(OC)c(S(=O)(=O)C(C)(C)C)cn23)c1 [Example 131, N-{3-methoxy-5-[7-methoxy-6-(2-methylpropane-2-sulfonyl)imidazo[1,2-a]pyridin-3-yl]phenyl}propane-1-sulfonamide]	< 50	< 1	
CCCS(=O)(=O)Nc1cc(OC)cc(-c2cnc3cc(OCC)c(S(=O)(=O)C(C)C)cn23)c1 [Example 132, N-{3-[7-ethoxy-6-(propane-2-sulfonyl)imidazo[1,2-a]pyridin-3-yl]-5-methoxyphenyl}propane-1-sulfonamide]	50 to 250	< 1	
CCCS(=O)(=O)Nc1cc(-c2cnc3cc(OCC)c(S(=O)(=O)C(C)C)cn23)ccc1OC [Example 133, N-{5-[7-ethoxy-6-(propane-2-sulfonyl)imidazo[1,2-a]pyridin-3-yl]-2-methoxyphenyl}propane-1-sulfonamide]	250 to 1000		2.5 to 20
CCCS(=O)(=O)Nc1cc(-c2cnc3cc(OC)c(S(=O)(=O)C(C)(C)C)cn23)ccc1OC(F)(F)F [Example 134, N-{5-[7-methoxy-6-(2-methylpropane-2-sulfonyl)imidazo[1,2-a]pyridin-3-yl]-2-(trifluoromethoxy)phenyl}propane-1-sulfonamide]	250 to 1000		2.5 to 20
CCCS(=O)(=O)Nc1cc(OC(F)(F)F)cc(-c2cnc3cc(OC)c(S(=O)(=O)C(C)(C)C)cn23)c1 [Example 135, N-{3-[7-methoxy-6-(2-methylpropane-2-sulfonyl)imidazo[1,2-a]pyridin-3-yl]-5-(trifluoromethoxy)phenyl}propane-1-sulfonamide]	> 1000		2.5 to 20
CCCS(=O)(=O)Nc1cc(-c2cnc3cc(OC)c(S(=O)(=O)C(C)(C)C)cn23)cc(OC)c1C [Example 136, N-(5-(6-(tert-Butylsulfonyl)-7-methoxyimidazo[1,2-a]pyridin-3-yl)-3-methoxy-2-methylphenyl)propane-1-sulfonamide]	> 1000		2.5 to 20
CCCS(=O)(=O)Nc1cc(-c2cnc3cc(OC)c(C(=O)N(C)C)cn23)cc(OC)c1OC [Example 137, 3-[3,4-dimethoxy-5-(propane-1-sulfonamido)phenyl]-7-methoxy-N,N-dimethylimidazo[1,2-a]pyridine-6-carboxamide]	250 to 1000		2.5 to 20
CCCS(=O)(=O)Nc1cc(-c2cnc3cc(OC)c(S(=O)(=O)C(C)(C)C)cn23)cc(OC(F)(F)F)c1F [Example 138, N-{2-fluoro-5-[7-methoxy-6-(2-methylpropane-2-sulfonyl)imidazo[1,2-a]pyridin-3-yl]-3-(trifluoromethoxy)phenyl}propane-1-sulfonamide]	> 1000	> 20	
CCCS(=O)(=O)Nc1cc(-c2cnn3ccc(S(=O)(=O)C(C)(C)C)cc23)cc(OC)c1OC [Example 139, N-(5-(5-(tert-butylsulfonyl)pyrazolo [1,5-a]pyridin-3-yl)-2,3-dimethoxyphenyl) propane-1-sulfonamide]	50 to 250		1 to 2.5
CCCS(=O)(=O)Nc1cc(-c2cnn3cc(OC)c(S(=O)(=O)C(C)(C)C)cc23)cc(OC)c1OC [Example 140, N-(5-(5-(tert-butylsulfonyl)-6-methoxypyrazolo[1,5-a]pyridin-3-yl)-2,3-dimethoxyphenyl) propane-1-sulfonamide]	< 50	< 1	
COc1cn2ncc(-c3cc(NS(C)(=O)=O)c(OC)c(OC)c3)c2cc1S(=O)(=O)C(C)(C)C [Example 141, N-(5-(5-(tert-butylsulfonyl)-6-methoxypyrazolo[1,5-a]pyridin-3-yl)-2,3-dimethoxyphenyl) methanesulfonamide]	50 to 250		1 to 2.5
COc1cc2ncc(-c3ccc(N)c(OC(F)F)c3)n2cc1S(=O)(=O)C(C)(C)C [Example 142, 4-(6-(tert-butylsulfonyl)-7-methoxyimidazo[1,2-a]pyridin-3-yl)-2-(difluoromethoxy)aniline]	250 to 1000		2.5 to 20
CCc1ccc(-c2cnc3cc(OC)c(S(=O)(=O)C(C)(C)C)cn23)cc1NS(C)(=O)=O [Example 143, N-(5-(6-(tert-butylsulfonyl)-7-methoxyimidazo[1,2-a]pyridin-3-yl)-2-ethylphenyl) methanesulfonamide]	> 1000		2.5 to 20
CCCS(=O)(=O)Nc1cc(-c2cnc3ccccn23)cc(F)c1OC [Example 144, N-(3-fluoro-5-(imidazo[1,2-a]pyridin-3-yl)-2-methoxyphenyl) propane-1-sulfonamide]	> 1000	> 20	
CCCS(=O)(=O)Nc1cc(-c2cnc3cc(OC)c(S(=O)(=O)C(C)(C)C)cn23)cc(OC(F)F)n1 [Example 145, N-(4-(6-(tert-butylsulfonyl)-7-methoxyimidazo[1,2-a]pyridin-3-yl)-6-(difluoromethoxy)pyridin-2-yl)propane-1-sulfonamide]	250 to 1000		1 to 2.5
CCCS(=O)(=O)Nc1cc(-c2cnc3cc(OC)c(C(C)(C)O)cn23)cc(F)c1OC [Example 146, N-(3-fluoro-5-(6-(2-hydroxypropan-2-yl)-7-methoxyimidazo[1,2-a]pyridin-3-yl)-2-methoxyphenyl)propane-1-sulfonamide]	50 to 250		1 to 2.5

SMILES	IC50 [1] [nM]	IC50 [2, 3] [nM]	IC50 [2] [nM]
COc1cc2ncc(-c3cc(F)c(OCc4ccccc4)c(NS(C)(=O)=O)c3)n2cc1S(=O)(=O)C(C)(C)C [Example 147, N-(2-(benzyloxy)-5-(6-(tert-butylsulfonyl)-7-methoxyimidazo[1,2-a]pyridin-3-yl)-3-fluorophenyl) methanesulfonamide]	> 1000		> 20
COc1cc2ncc(-c3ccc(NS(C)(=O)=O)nc3)n2cc1S(=O)(=O)C(C)(C)C [Example 148, N-(5-(6-(tert-butylsulfonyl)-7-methoxyimidazo[1,2-a]pyridin-3-yl)pyridin-2-yl)methanesulfonamide]	> 1000	> 20	
COc1cc2ncc(-c3ccc(O)nc3)n2cc1S(=O)(=O)C(C)(C)C [Example 150, 5-(6-(tert-butylsulfonyl)-7-methoxyimidazo[1,2-a]pyridin-3-yl)pyridin-2-ol]	> 1000	> 20	
COc1cc2ncc(-c3cccc(S(C)(=O)=O)c3)n2cc1S(=O)(=O)C(C)(C)C [Example 151, 6-(tert-butylsulfonyl)-7-methoxy-3-(3-(methylsulfonyl)phenyl) imidazo[1,2-a]pyridine]	> 1000	> 20	
COc1cc2ncc(-c3ccc(S(N)(=O)=O)cc3)n2cc1S(=O)(=O)C(C)(C)C [Example 152, 4-(6-(tert-butylsulfonyl)-7-methoxyimidazo[1,2-a]pyridin-3-yl)benzenesulfonamide]	> 1000	> 20	
COc1cc2ncc(-c3cccc(S(N)(=O)=O)c3)n2cc1S(=O)(=O)C(C)(C)C [Example 153, 3-(6-(tert-butylsulfonyl)-7-methoxyimidazo[1,2-a]pyridin-3-yl)benzenesulfonamide]	> 1000	> 20	
COc1cc2ncc(-c3cc(F)c(N)nc3F)n2cc1S(=O)(=O)C(C)(C)C(F)F [Example 154, 5-(6-((1,1-difluoro-2-methylpropan-2-yl)sulfonyl)-7-methoxyimidazo[1,2-a]pyridin-3-yl)-3,6-difluoropyridin-2-amine]	50 to 250		2.5 to 20
CCOc1cc2ncc(-c3cc(F)c(N)nc3C)n2cc1S(=O)(=O)C(C)C [Example 155, 5-(7-ethoxy-6-(isopropylsulfonyl)imidazo [1,2-a]pyridin-3-yl)-3-fluoro-6-methylpyridin-2-amine]	> 1000	> 20	
COc1cc2ncc(-c3cccc(CS(C)(=O)=O)c3)n2cc1S(=O)(=O)C(C)(C)C [Example 156, 6-(tert-butylsulfonyl)-7-methoxy-3-(3-((methylsulfonyl)methyl)phenyl)imidazo[1,2-a]pyridine]	> 1000	> 20	
COc1cc2ncc(-c3cc(N)cc(F)c3)n2cc1S(=O)(=O)C(C)(C)C [Example 157, 3-(6-(tert-butylsulfonyl)-7-methoxyimidazo[1,2-a]pyridin-3-yl)-5-fluoroaniline]	50 to 250		2.5 to 20
COc1cc2ncc(-c3ccc(OC)c(Cl)n3)n2cc1S(=O)(=O)C(C)(C)C [Example 158, 6-(tert-butylsulfonyl)-3-(6-chloro-5-methoxypyridin-2-yl)-7-methoxyimidazo[1,2-a]pyridine]	> 1000	> 20	
CCCS(=O)(=O)Nc1nc(-c2cnc3cc(OC)c(S(=O)(=O)C(C)(C)C)cn23)ccc1CC [Example 160, N-(6-(6-(tert-butylsulfonyl)-7-methoxyimidazo[1,2-a]pyridin-3-yl)-3-ethylpyridin-2-yl)propane-1-sulfonamide]	> 1000	> 20	
CCCS(=O)(=O)Nc1cc(OC)cc(-c2cnc3cc(OC)c(S(=O)(=O)C(C)(C)C)cn23)n1 [Example 161, N-(6-(6-(tert-butylsulfonyl)-7-methoxyimidazo[1,2-a]pyridin-3-yl)-4-methoxypyridin-2-yl)propane-1-sulfonamide]	250 to 1000		2.5 to 20
CNc1ccnc(-c2cnc3cc(OC)c(S(=O)(=O)C(C)(C)C)cn23)c1 [Example 162, 2-(6-(tert-butylsulfonyl)-7-methoxyimidazo[1,2-a]pyridin-3-yl)-N-methylpyridin-4-amine]	> 1000	> 20	
CCCS(=O)(=O)Nc1nc(-c2cnc3cc(OC)c(S(=O)(=O)C(C)(C)C)cn23)ccc1C [Example 163, N-(6-(6-(tert-butylsulfonyl)-7-methoxyimidazo[1,2-a]pyridin-3-yl)-3-methylpyridin-2-yl)propane-1-sulfonamide]	> 1000	> 20	
COc1cc2ncc(-c3cnc(N)c(F)c3F)n2cc1S(=O)(=O)C(C)(C)C [Example 164, 5-(6-(tert-butylsulfonyl)-7-methoxyimidazo[1,2-a]pyridin-3-yl)-3,4-difluoropyridin-2-amine]	> 1000	> 20	
